The text below walks through data of PubChem BioAssay (NCI).

Some test systems named below: 786-0 renal; CAKI-1 renal; COLO 205 colon; OVCAR-8 ovarian; RXF 393 renal; SK-MEL-2 melanoma; SK-MEL-5 melanoma; TK-10 renal; UACC-62 melanoma; NCI-H23 lung.
Common to all, as to experiment: inhibition of tumour cell growth, NCI panel, 48 h

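Interpolation was linear, between the two tested concentrations surrounding the appropriate level; five concentrations were tested over 48 hours in 96-well plates. GI50 is the concentration that inhibits growth by half. TGI is the concentration that stops growth completely.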

On to `Clc1ccc(Cc2nc3ccccc3s2)c(Cl)c1`, for which the TGI in the assay on 786-0 renal came to 27.8 µM; in the assay on CAKI-1 renal, 31.2 µM; in the assay with COLO 205 colon, 31.5 µM; in the assay with OVCAR-8 ovarian, 38.4 µM; in the assay with RXF 393 renal it was 36 µM; with SK-MEL-2 melanoma, 32.7 µM. Besides, the results for the TGI in the assay with SK-MEL-5 melanoma, in the assay with TK-10 renal and in the assay on UACC-62 melanoma were 32.6 µM, 38.4 µM and 28.9 µM, respectively.
With `COc1ccc(NC(=O)C(=O)Cc2nc3ccc([N+](=O)[O-])cc3[nH]c2=O)c(OC)c1`, the TGI with 786-0 renal, in the assay on CAKI-1 renal, in the assay on COLO 205 colon, in the assay on NCI-H23 lung, in the assay on RXF 393 renal and with SK-MEL-2 melanoma was over 100 µM throughout. Moreover, the TGI in the assay with SK-MEL-5 melanoma, in the assay with TK-10 renal and in the assay with UACC-62 melanoma was over 100 µM throughout.
Turning to `COc1cc(/C=C\c2ccccc2)cc(OC)c1OC`, the TGI is over 52.8 µM in the assay on 786-0 renal; over 100 µM in the assay with CAKI-1 renal; over 20.4 µM in the assay with COLO 205 colon; 19.5 µM with NCI-H23 lung; 46.7 µM in the assay on OVCAR-8 ovarian; 5.25 µM in the assay on RXF 393 renal. Further, the TGI is 26.2 µM with SK-MEL-2 melanoma, 9.12 µM in the assay on SK-MEL-5 melanoma, over 50.3 µM with TK-10 renal and 41.2 µM with UACC-62 melanoma.
Consider `COc1cc2c(c(OC)c1OC)-c1ccc(N)c(=O)cc1[C@@H](NC(C)=O)CC2`, for which the GI50 was 0.108 µM in the assay with 786-0 renal; 1.42 µM in the assay with CAKI-1 renal; 0.012 µM in the assay on COLO 205 colon; 0.0316 µM with NCI-H23 lung; 0.0477 µM in the assay with OVCAR-8 ovarian; 0.0303 µM in the assay on RXF 393 renal. In addition, the GI50 in the assay on SK-MEL-2 melanoma was under 0.01 µM; with TK-10 renal, 0.0852 µM; with UACC-62 melanoma, 0.0379 µM. Moreover, the TGI with 786-0 renal is over 100 µM; with CAKI-1 renal, over 47.2 µM; with COLO 205 colon, 0.0386 µM; with NCI-H23 lung, over 100 µM; with OVCAR-8 ovarian it was over 100 µM; in the assay on RXF 393 renal it was over 100 µM. Further, the TGI is 0.0353 µM in the assay with SK-MEL-2 melanoma, over 100 µM in the assay on TK-10 renal and over 100 µM with UACC-62 melanoma.
`CCCCCCCCCCCCCCN`: the TGI in the assay with 786-0 renal, with CAKI-1 renal, in the assay on COLO 205 colon, with NCI-H23 lung, in the assay with OVCAR-8 ovarian and with RXF 393 renal was over 100 µM in each case. Also, the TGI with SK-MEL-2 melanoma, with SK-MEL-5 melanoma, in the assay with TK-10 renal and with UACC-62 melanoma was over 100 µM throughout.
For `O=C1c2ccc([N+](=O)[O-])cc2-c2c1c1ccccc1c(=O)n2CCCNCCCNCCCn1c2c(c3ccc([N+](=O)[O-])cc3c1=O)C(=O)c1ccccc1-2`, the GI50 in the assay on 786-0 renal was 1.2 µM; in the assay on CAKI-1 renal, 3.33 µM; in the assay with COLO 205 colon, 1.33 µM; in the assay on NCI-H23 lung, 1.2 µM; in the assay with OVCAR-8 ovarian, 0.31 µM; in the assay on RXF 393 renal, 5.51 µM. Further, the GI50 in the assay on SK-MEL-2 melanoma was 17.3 µM; in the assay with SK-MEL-5 melanoma, 3.07 µM; in the assay with TK-10 renal it was 5.32 µM; in the assay on UACC-62 melanoma, 1.71 µM. For the same molecule, the TGI was 7.21 µM in the assay on 786-0 renal; 20.8 µM with CAKI-1 renal; 6.83 µM in the assay with COLO 205 colon; 3.4 µM in the assay on NCI-H23 lung; 2.32 µM with OVCAR-8 ovarian; 41 µM in the assay with RXF 393 renal. Besides, the TGI worked out at 62.3 µM in the assay with SK-MEL-2 melanoma, 20.9 µM with SK-MEL-5 melanoma, 33.9 µM in the assay with TK-10 renal and 4.85 µM with UACC-62 melanoma.
`O=C(/C=C/C12c3ccccc3C(c3ccccc31)C1C(=O)N(c3ccccc3)C(=O)C12)c1ccccc1` (stereo not given): the GI50 in the assay on 786-0 renal is 2.89 µM; with CAKI-1 renal, 1.5 µM; with COLO 205 colon it was 2.11 µM; in the assay with NCI-H23 lung it was 2.69 µM; with OVCAR-8 ovarian it was 1.79 µM; in the assay with RXF 393 renal it was 1.21 µM. In addition, the GI50 in the assay with SK-MEL-2 melanoma is 2.13 µM; in the assay with SK-MEL-5 melanoma, 2.29 µM; with TK-10 renal, 6.22 µM; in the assay with UACC-62 melanoma it was 1.66 µM. In addition, the TGI in the assay with 786-0 renal is over 100 µM; in the assay with CAKI-1 renal it was over 100 µM; in the assay with COLO 205 colon, 4.85 µM; with NCI-H23 lung, 18.1 µM; in the assay with OVCAR-8 ovarian it was over 100 µM; in the assay on RXF 393 renal it was 2.82 µM. The TGI was 7.85 µM with SK-MEL-2 melanoma, 6.21 µM in the assay on SK-MEL-5 melanoma, over 100 µM with TK-10 renal and 4.94 µM with UACC-62 melanoma.
As for `CCOC(=O)C1(Br)C(c2ccccc2)NC(=O)NC1(C)Br` (stereo not given), the TGI in the assay on 786-0 renal is over 100 µM; in the assay with CAKI-1 renal, over 62.4 µM; in the assay with COLO 205 colon, over 100 µM; with NCI-H23 lung, over 100 µM; in the assay on OVCAR-8 ovarian, over 100 µM; with RXF 393 renal, over 100 µM. Further, the TGI with SK-MEL-2 melanoma, with SK-MEL-5 melanoma, in the assay on TK-10 renal and in the assay on UACC-62 melanoma was over 100 µM throughout.
Turning to `O=C(c1ccc2ccccc2c1)c1c(C(F)(F)F)n([O-])c2cc(F)c(F)cc2[n+]1=O`, the GI50 with 786-0 renal was 1.74 µM; in the assay with CAKI-1 renal, 1.82 µM; in the assay with NCI-H23 lung, 2.62 µM; in the assay on RXF 393 renal it was 1.49 µM; in the assay on SK-MEL-2 melanoma it was 2.16 µM; with SK-MEL-5 melanoma, 4.84 µM. The GI50 in the assay on TK-10 renal was 1.76 µM; with UACC-62 melanoma it was 2.75 µM. For the same molecule, the TGI with 786-0 renal stood at 3.23 µM; in the assay with CAKI-1 renal, 3.97 µM; in the assay on NCI-H23 lung, 9.29 µM; in the assay with RXF 393 renal, 2.97 µM; in the assay with SK-MEL-2 melanoma it was 5.52 µM; in the assay on SK-MEL-5 melanoma, 18.3 µM. Also, the results for the TGI in the assay with TK-10 renal and with UACC-62 melanoma were 3.41 µM and 6.62 µM, respectively.
`O=C(Nc1ccc(F)cc1)c1ccc(NC2=C(Cl)C(=O)N(Cc3ccccc3)C2=O)cc1`: the GI50 in the assay with 786-0 renal is 10.5 µM; with CAKI-1 renal, 1.78 µM; in the assay on COLO 205 colon, 22.1 µM; in the assay with NCI-H23 lung, 31.5 µM; with OVCAR-8 ovarian it was 4.66 µM; with RXF 393 renal it was 12.2 µM. Moreover, the GI50 was 5.34 µM with SK-MEL-2 melanoma, 18.5 µM in the assay on SK-MEL-5 melanoma and 18.1 µM in the assay with UACC-62 melanoma. The TGI is 22.9 µM with 786-0 renal; 3.36 µM in the assay on CAKI-1 renal; over 100 µM in the assay with COLO 205 colon; 84.4 µM in the assay on NCI-H23 lung; 30.9 µM in the assay on OVCAR-8 ovarian; 32.2 µM in the assay on RXF 393 renal. Also, the TGI with SK-MEL-2 melanoma came to 19.3 µM; in the assay with SK-MEL-5 melanoma it was 63.7 µM; with UACC-62 melanoma it was 38.5 µM.
